Source: patent US7390836B2, “Small molecules used to increase cell death” (priority 1999, dated 2008)
Read-outs that look alike come from different tables or passages of the source.

How the values were obtained:
[1] = tested on: Bak BH3 peptide / Bcl-xL (Bcl-xL/GST, Bcl-xL-His6) interaction; test: Fluorescence polarization assay, labeled Bak BH3 peptide binding to Bcl-xL fusion protein; details: for order of affinities of BH3Is: overall rank order from FP, NMR, pulldown and SELDI results; for order of decreasing affinity, fluorescence polarization assays: rank order
From the text: We have used a fluorescence polarization assay to screen a library of 16,000 chemical compounds (ChemBridge, San Diego, Calif.) to identify small molecules that inhibit the interaction between a peptide corresponding to the BH3 domain of a pro-apoptotic protein and a recombinant Bcl-xL/GST fusion protein. In this assay, an […] peptide corresponding to the BH3 domain of Bak was used. The Bak peptide was labeled with a fluorescent tag, such as OREGON GREEN. Upon binding of the tagged peptide to the Bcl-xL/GST fusion protein, the polarization of light emitted by the tagged peptide is altered. […] Conversely, in a sample in which a compound does inhibit the interaction between the Bak peptide and the Bcl-xL/GST fusion protein the polarization of light emitted by the peptide will not be altered.
A nineteen amino acid Bak peptide, corresponding to the BH3 domain of Bak, with the sequence […] (SEQ ID NO: 2) was labeled with the fluorophore OREGON GREEN according to the manufacturer's instructions (Molecular Probes, Eugene, Oreg.). In addition, a recombinant Bcl-xL/GST fusion protein was generated using conventional techniques known to those skilled in the fields of biochemistry and molecular biology. The interaction between the Bak peptide and the Bcl-xL/GST fusion protein was confirmed.
A screen of approximately 16,000 compounds from the ChemBridge chemical compound library was conducted to identify compounds that disrupt the interaction between the Bak peptide and the Bcl-xL/GST fusion protein. The ability of a compound to disrupt the interaction between the two polypeptides was assessed using a fluorescence polarization assay. The Bak peptide and Bcl-xL/GST fusion protein (15 nM each; dissolved in PBS) were first combined, and then the compound was added. Alternatively, the Bak peptide, Bcl-xL/GST fusion protein, and test compound (5 mg/ml; dissolved in 0.1-0.5 gl of DMSO) may be combined in any order. Normally the unbound Bak polypeptide results in polarization of approximately 40 mP units. Upon binding of the Bcl-xL/GST fusion protein, polarization increased to approximately 100-120 mP units.
In a preferred method, the fluorescence assay was carried out as follows. Bak BH3 peptide (Research Genetics) was labeled using NHS-OREGON GREEN (Molecular Probes) and purified by HPLC. For the initial screening assays, 33 nM of labeled BH3 peptide, 2 μM of GST-Bcl-xL protein, 0.1% bovine gamma globulin (BGG, Sigma) and 1 mM DTT mixed with PBS, pH 7.2 (Gibco) were added into 384 well black plates (Lab Systems) using MULTIDROP (Lab Systems). Small molecules (5 mg/ml in DMSO, ChemBridge) were transferred using plastic 384-pin arrays (Genetix). The plates were incubated for 1-2 hr at 25° C., and the fluorescence polarization assay values were determined using an Analyst plate reader (LJL Biosystems). Reactions containing 16.65 nM of labeled BH3 peptide and 4.2 μM of Bcl-xL-His6 fusion protein, which was previously utilized to characterize BH3/Bcl-xL binding (Sattler et al., Science 275:983-6, 1997) were used for the further fluorescence polarization analyses. Kd and Ki determination was performed as previously described using […] PRISM software package (GraphPad) (Dandliker et al., Methods Enzymol. 74:3-28,1981).
In a further screen, various concentrations of each of the above-identified compounds were evaluated for their potency. A serial dilution of each chemical compound was performed and the fluorescence polarization assay was repeated, as per the primary screen. As a result of the secondary screening, three compounds, chemical compound ID numbers 275805 (BH3I-1; FIG. 1), 282986 (BH3I-1′; FIG. 2), and 175362 (BH3I-2; FIG. 3), collectively termed “BH3Is,” were identified to disrupt the interaction between Bak and the BCL-xL/GST fusion protein. […] Additional homologues of the BH3I-1s (BH3I-1″ and BH3I-1′″) and BH3I-2 (BH3-2″ and BH3I-2″) were also analyzed in the study (FIG. 4). […]

[2] = target: T1, Bad / Bcl-xL on mitochondria isolated from 293 cells (Homo sapiens, UniProt Q07817); test: Mitochondrial association of Bad in isolated mitochondria; details: rank order
T1 construct: expressed in transfected cells; host or cells: 293 cells (isolated mitochondria)
Experimental: FIG. 8C is an images of a the expression of Bad and Bcl-xL in 293 cells co-transfected with HA-Bad and Bcl-xL-T7. After 48 hr, cells were harvested and isolated mitochondria were treated with BH3Is for 2 hrs. Following treatment, mitochondria were pelleted by centrifugation and subjected to Western blot analysis using anti-HA and anti-T 7 antibodies.
BH3Is disrupted the mitochondrial association of Bad, but not Bcl-xL, after in vitro treatment of the mitochondria isolated from 293 cells co-transfected with Bad and Bcl-xL (FIG. 8C). The relative activities of the BH3Is in this assay (BH3I-2>BH3I-1>BH3I-1″) were consistent with the previous results. […] Again, the order of the activities in these assays was BH3I-2>BH3I-1>BH3I-1″.

Jurkat cells = test: Cytotoxicity by MTS assay and propidium iodide uptake; type: cell-based
Experimental: Since BH3Is induce apoptosis, their mode of action, for example, through disruption of BH3 domain interactions, was investigated next. If apoptosis induced by a BH3I is BH3-dependent, then cytotoxicity should correlate with the compound's ability to disrupt BH3 domain interactions in vitro. To examine this possibility, Jurkat cells were treated with the BH3 Is and the occurrence of cell death was assayed by the MTS assay and propidium iodide (PI) uptake (FIG. 7A). The cytotoxicity of BH3-Is followed the order of BH3I-2′>BH3I-2>BH3I-2″>BH3I-1>BH3I-1′>BH3I-1″>BH3I-1′″ which paralleled the order of their Ki values determined using in vitro Bcl-xL binding assays (FIGS. 7B and 7C). Similar data were obtained using a trypan blue exclusion assay.

[3] = tested on: tBid / Bcl-xL heterodimerization; test: tBid pulldown with Bcl-xL-His6 beads; type: binding; details: for effect on tBid binding to Bcl-xL: 35S labeled in vitro translated tBid; for relative activity in tBid pulldown: comparison between compounds
Experimental: Next, it was determined whether BH3Is could disrupt the heterodimerization of Bcl-xL with pro-apoptotic proteins from the Bcl-2 family, such as truncated Bid (tBid). Truncation of Bid by caspase-8 activates Bid and dramatically increases its affinity towards anti-apoptotic Bcl-2 family members (Li et al., Cell 94:491-501, 1998). To perform this study, in vitro translation of tBid or U2AF^65 (control) was performed using TNT® Coupled Reticulocyte and Wheat Germ Lysate Systems (Promega) respectively. Bcl-xL, U2AF^35 (control) or corresponding amounts of original Ni-NTA agarose beads (blank) were pre-incubated with the BH3 inhibitors or peptide in 100 μl of PBS for 30 min at 25° C. Then 1 μl of ^35S-labeled tBID or U2AF^65 was added and incubation was continued for 2 hr at 4° C. The samples were subjected to SDS-PAGE, coomassie blue staining and autoradiography.

[4] = MTS assay and PI uptake, rank order

T1 sequence (Q07817 whole entry): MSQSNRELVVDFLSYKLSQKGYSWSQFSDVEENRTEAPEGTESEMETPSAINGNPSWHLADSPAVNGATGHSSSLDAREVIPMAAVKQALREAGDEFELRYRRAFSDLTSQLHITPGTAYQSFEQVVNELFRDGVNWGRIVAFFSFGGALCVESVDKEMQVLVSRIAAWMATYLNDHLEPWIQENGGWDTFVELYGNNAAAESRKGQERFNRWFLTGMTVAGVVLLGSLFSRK

Row | Compound | order of affinities of BH3Is [1] | order of decreasing affinity, fluorescence polarization assays [1] | relative activities, mitochondrial association of Bad [2] | order of cytotoxicity (Jurkat cells; [4]) | effect on tBid binding to Bcl-xL [3] | relative activity in tBid pulldown [3] | order of cytotoxicity (Jurkat cells)
1 | CC(C)C(C(=O)O)N1C(=O)C(=Cc2ccc(Br)cc2)SC1=S (stereo in doubt) [BH3I-1] | BH312′>BH3I-2>BH3I-2″>BH3I-1>BH3I-1′>BH3I-1″>BH3I-1′″ | BH3I-1>BH3I-1′>BH3I-2′>BH3I-2>BH3I-2″>BH3I-1″ | BH3I-2>BH3I-1>BH3I-1″ | BH3I-2′>BH3I-2>BH3I-2″>BH3I-1>BH3I-1′>BH3I-1″>BH3I-1′″ | dose-dependent decrease in the tBid binding | lower activity than BH3I-2 | –
2 | CC(C)C(C(=O)O)N1C(=O)/C(=C/c2ccccc2)SC1=S (stereo not shown) [BH3I-1″] | BH312′>BH3I-2>BH3I-2″>BH3I-1>BH3I-1′>BH3I-1″>BH3I-1′″ | BH3I-1>BH3I-1′>BH3I-2′>BH3I-2>BH3I-2″>BH3I-1″ | BH3I-2>BH3I-1>BH3I-1″ | – | – | even lower | BH3I-2′>BH3I-2>BH3I-2″>BH3I-1>BH3I-1′>BH3I-1″>BH3I-1′″
3 | O=C(Nc1cc(S(=O)(=O)c2ccc(Cl)cc2)ccc1Cl)c1cc(Cl)cc(Br)c1O [BH3I-2] | BH312′>BH3I-2>BH3I-2″>BH3I-1>BH3I-1′>BH3I-1″>BH3I-1′″ | BH3I-1>BH3I-1′>BH3I-2′>BH3I-2>BH3I-2″>BH3I-1″ | BH3I-2>BH3I-1>BH3I-1″ | BH3I-2′>BH3I-2>BH3I-2″>BH3I-1>BH3I-1′>BH3I-1″>BH3I-1′″ | dose-dependent decrease in the tBid binding | – | –
